Counter-ions that a name gives are not always drawn.
Target: T1, Human D1 Receptor (Homo sapiens, UniProt P21728)
T1 construct: expressed in transfected cells; host or cells: LTK cell line over-expressing the D1 receptor
Assay: Human D1 Receptor Binding Assay ([3H]-SCH23390 competition binding)
Conditions: over-expressing LTK human cell lines; 0.5 nM [3H]-SCH23390; 30 min at 37° C.; footnote a = geometric mean of ≧5 determinations, footnote b = single determination; read-out: Human D1 Receptor Binding, Ki (nM); Geometric mean of 2-4 determinations (unless otherwise indicated)
Procedure: The affinity of the compounds described herein was determined by competition binding assays similar to those described in Ryman-Rasmussen et al., “Differential activation of adenylate cyclase and receptor internalization by novel dopamine D1 receptor agonists”, Molecular Pharmacology 68(4):1039-1048 (2005).
D1 binding assays were performed using over-expressing LTK human cell lines. […] These ligand and tissue concentrations were used in time course studies to determine linearity and equilibrium conditions for binding. Binding was at equilibrium with the specified amount of tissue in 30 minutes at 37° C. […] The pellet was resuspended in assay buffer [50 mM Tris (pH 7.4@RT) containing 4 mM MgSO4 and 0.5 mM EDTA]. […] Non-specific binding was determined by radioligand binding in the presence of a saturating concentration of (+)-Butaclamol (10 μM), a D1 antagonist. After a 30 minute incubation period at 37° C., assay samples were rapidly filtered through Unifilter-96 GF/B PEI-coated filter plates and rinsed with 50 mM Tris buffer (pH 7.4 at 4° C.). […] The IC50 value (concentration at which 50% inhibition of specific binding occurs) was calculated by linear regression of the concentration-response data in Microsoft Excel. Ki values were calculated according to the Cheng-Prusoff equation: […]

T1 sequence (P21728 whole entry): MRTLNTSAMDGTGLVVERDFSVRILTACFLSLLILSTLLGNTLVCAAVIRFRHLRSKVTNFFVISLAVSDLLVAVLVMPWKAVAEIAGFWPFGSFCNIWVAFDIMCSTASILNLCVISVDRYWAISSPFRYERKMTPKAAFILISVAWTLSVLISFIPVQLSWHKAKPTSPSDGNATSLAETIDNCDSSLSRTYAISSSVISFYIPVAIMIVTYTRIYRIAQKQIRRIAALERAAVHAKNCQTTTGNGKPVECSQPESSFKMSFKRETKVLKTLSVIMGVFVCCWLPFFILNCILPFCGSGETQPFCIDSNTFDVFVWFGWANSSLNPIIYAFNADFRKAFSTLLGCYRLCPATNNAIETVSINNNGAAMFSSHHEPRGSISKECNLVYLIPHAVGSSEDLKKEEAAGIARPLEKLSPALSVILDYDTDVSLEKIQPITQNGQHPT

| SMILES | Ki [nM] |
| --- | --- |
| Cc1ncnc(C)c1-c1cc(F)c(Oc2nccc3ncsc23)c(F)c1 [Example 32, 4[4-(4,6-dimethylpyrimidin-5-yl)-2,6-difluorophenoxy][1,3]thiazolo[5,4-c]pyridine] | 1060 |
| Cc1ncnc(C)c1-c1cc(F)c(Oc2ncnc3ccsc23)c(F)c1 [Example 33, 4-[4-(4,6-dimethylpyrimidin-5-yl)-2,6-difluorophenoxy]thieno[3,2-d]pyrimidine] | 864 |
| Cc1cc(Oc2nccc3ncsc23)c(F)cc1-c1c(C)ncnc1C [Example 34, 4-[4-(4,6-dimethylpyrimidin-5-yl)-2-fluoro-5-methylphenoxy][1,3]thiazolo[5,4-c]pyridine] | 151 |
| Cc1ncnc(C)c1-c1ccc(Oc2ncnc3ccsc23)cc1C#N [Example 35, 2-(4,6-dimethylpyrimidin-5-yl)-5-(thieno[3,2-d]pyrimidin-4-yloxy)benzonitrile] | 480 |
| Cc1ncnc(C)c1-c1ccc(Oc2nccc3ccsc23)cc1Cl [Example 36, 7-[3-chloro-4-(4,6-dimethylpyrimidin-5-yl)phenoxy]thieno[2,3-c]pyridine] | 6.7 |
| Cc1ncnc(C)c1-c1cc(F)c(Oc2nccc3ccsc23)c(F)c1 [Example 37, 7-[4-(4,6-dimethylpyrimidin-5-yl)-2,6-difluorophenoxy]thieno[2,3-c]pyridine] | 79.8 |
| Cc1cc(Oc2nccc3ccsc23)c(F)cc1-c1c(C)ncnc1C [Example 38, 7-[4-(4,6-dimethylpyrimidin-5-yl)-2-fluoro-5-methylphenoxy]thieno[2,3-c]pyridine] | 7.9 |
| Cc1ncnc(C)c1-c1ccc(Oc2nccc3ccsc23)c(F)c1 [Example 39, 7-[4-(4,6-dimethylpyrimidin-5-yl)-2-fluorophenoxy]thieno[2,3-c]pyridine] | 28.2 |
| Cc1ncnc(C)c1-c1ccc(Oc2nccc3ccsc23)c(F)c1C [Example 40, 7-[4-(4,6-dimethylpyrimidin-5-yl)-2-fluoro-3-methylphenoxy]thieno[2,3-c]pyridine] | 40.7 |
| Cc1ncnc(C)c1-c1cc(F)c(Oc2nccc3ccsc23)cc1F [Example 41, 7-[4-(4,6-dimethylpyrimidin-5-yl)-2,5-difluorophenoxy]thieno[2,3-c]pyridine] | 24.3 |
| COc1cc(Oc2nccc3ccsc23)ccc1-c1c(C)cnnc1C [Example 42, 7-[4-(3,5-dimethylpyridazin-4-yl)-3-methoxyphenoxy]thieno[2,3-c]pyridine] | 17.7 |
| Cc1cnnc(C)c1-c1ccc(Oc2nccc3ccsc23)cc1C#N [Example 43, 2-(3,5-dimethylpyridazin-4-yl)-5-(thieno[2,3-c]pyridin-7-yloxy)benzonitrile, trifluoroacetate salt] | 46.3 |
| COc1cc(Oc2nccc3ccsc23)ccc1-c1cccnc1C [Example 44, 7-[3-methoxy-4-(2-methylpyridin-3-yl)phenoxy]thieno[2,3-c]pyridine, trifluoroacetate salt] | 16.4 |
| Cc1cnnc(C)c1-c1ccc(Oc2nccc3ccsc23)cc1F [Example 47, 7-[4-(3,5-dimethylpyridazin-4-yl)-3-fluorophenoxy]thieno[2,3-c]pyridine] | 6.1 |
| COc1cc(Oc2nccc3ccsc23)ccc1-c1c(C)ncnc1C [Example 48, 7-[4-(4,6-dimethylpyrimidin-5-yl)-3-methoxyphenoxy]thieno[2,3-c]pyridine] | 13.5 |
| Cc1ncnc(C)c1-c1ccc(Oc2nccc3ccsc23)cc1C#N [Example 49, 2-(4,6-dimethylpyrimidin-5-yl)-5-(thieno[2,3-c]pyridin-7-yloxy)benzonitrile] | 16.3 |
| Cc1ncnc(C)c1-c1ccc(Oc2nccc3ccsc23)cc1F [Example 50, 7-[4-(4,6-dimethylpyrimidin-5-yl)-3-fluorophenoxy]thieno[2,3-c]pyridine] | 6.7 |
| Cc1nc2cnccc2n1-c1ccc(Oc2nccc3ccsc23)cc1 [Example 51, 2-methyl-1-[4-(thieno[2,3-c]pyridin-7-yloxy)phenyl]-1H-imidazo[4,5-c]pyridine, trifluoroacetate salt] | 89.5 |
| Cc1cc(Oc2nccc3ccoc23)ccc1-c1c(C)ncnc1C#N [Example 52, 5-[4-(furo[2,3-c]pyridin-7-yloxy)-2-methylphenyl]-6-methylpyrimidine-4-carbonitrile] | 212 |
| Cc1cc(Oc2nccc3cc[nH]c23)ccc1-c1nccnc1C [Example 53, 7-[3-methyl-4-(3-methylpyrazin-2-yl)phenoxy]-1H-pyrrolo[2,3-c]pyridine] | 1890 |
| Cc1cc(Oc2nccc3cc[nH]c23)ccc1-c1c(C)ncc2nccn12 [Example 54, 6-methyl-5-[2-methyl-4-(1H-pyrrolo[2,3-c]pyridin-7-yloxy)phenyl]imidazo[1,2-a]pyrazine] | 68.9 |
| Cc1cc(Oc2nccc3cc[nH]c23)ccc1-c1c(C)ncnc1C#N [Example 55, 6-methyl-5-[2-methyl-4-(1H-pyrrolo[2,3-c]pyridin-7-yloxy)phenyl]pyrimidine-4-carbonitrile] | 614 |

Now from value to molecule:

| Ki [nM] | SMILES |
| --- | --- |
| 106 | Cc1nc2ccnc(Oc3ccc(-c4c(C)n[nH]c(=O)c4C)c(C)c3)c2s1 [Example 56, 4,6-dimethyl-5-{2-methyl-4-[(2-methyl[1,3]thiazolo[5,4-c]pyridin-4-yl)oxy]phenyl}pyridazin-3(2H)-one] |
| 2340 | Cc1cc(Oc2ncnc3ncsc23)ccc1-c1c(C)ncnc1C [Example 57, 7-[4-(4,6-dimethylpyrimidin-5-yl)-3-methylphenoxy][1,3]thiazolo[4,5-d]pyrimidine] |
| 75.1 | Cc1cc(Oc2nccc3ncsc23)ccc1-c1c(C)ncnc1C [Example 58, 4-[4-(4,6-dimethylpyrimidin-5-yl)-3-methylphenoxy][1,3]thiazolo[5,4-c]pyridine] |
| 185 | COc1cc(Oc2nccc3ncsc23)ccc1-c1c(C)ncnc1C [Example 59, 4-[4-(4,6-dimethylpyrimidin-5-yl)-3-methoxyphenoxy][1,3]thiazolo[5,4-c]pyridine] |
| 65.3 | Cc1cc(Oc2nccc3ncsc23)ccc1-c1c(C)cnnc1C [Example 60, 4-[4-(3,5-dimethylpyridazin-4-yl)-3-methylphenoxy][1,3]thiazolo[5,4-c]pyridine] |
| 109 | Cc1cnnc(C)c1-c1ccc(Oc2nccc3ncsc23)cc1F [Example 63, 4-[4-(3,5-dimethylpyridazin-4-yl)-3-fluorophenoxy][1,3]thiazolo[5,4-c]pyridine] |
| 175 | Cc1ncnc(C)c1-c1ccc(Oc2nccc3ncsc23)c(F)c1C [Example 66, 4-[4-(4,6-dimethylpyrimidin-5-yl)-2-fluoro-3-methylphenoxy][1,3]thiazolo[5,4-c]pyridine] |
| 17.7 | Cc1n[nH]c(=O)c(C)c1-c1ccc(Oc2ncnc3ccsc23)cc1 [Example 67, 4,6-dimethyl-5-[4-(thieno[3,2-d]pyrimidin-4-yloxy)phenyl]pyridazin-3(2H)-one] |
| 15.6 | Cc1c(-c2ccc(Oc3ncnc4ccsc34)cc2)n(C)c(=O)[nH]c1=O [Example 68, 1,5-dimethyl-6-[4-(thieno[3,2-d]pyrimidin-4-yloxy)phenyl]pyrimidine-2,4(1H,3H)-dione] |
| 126 | Cc1cc(Oc2nccc3cc[nH]c23)ccc1-c1c(C)n[nH]c(=O)c1C [Example 69, 4,6-dimethyl-5-[2-methyl-4-(1H-pyrrolo[2,3-c]pyridin-7-yloxy)phenyl]pyridazin-3(2H)-one] |

Source: patent US9688698B2, “Heteroaromatic compounds and their use as dopamine D1 ligands” (PFIZER INC., priority 2014, dated 2017)
